Experimental data as given in patent US10912769B2, “1-[(pyridin-3-yl-sulfonyl)-1H-pyrrol-3-yl] methanamine derivative and pharmaceutical composition and use thereof” (Jiangsu Jibeier Pharmaceutical Co. Ltd., priority 2016, dated 2021).
Structures can show the parent of a compound that is named as a salt. Where two headings read alike, the source gives them in different places. Marks after values point to notes of the source that are not given here.

Columns and labels:
[1] = system: basal gastric acid secretion in rats; assay: Inhibitory test of basal gastric acid secretion in pylorus-ligated rats after intragastric administration; assay type: in vivo, SD rats; conditions: for Inhibitory rate (basal gastric acid secretion) / Amount of gastric juice / Total acid amount of the gastric juice: n = 10; for Amount of gastric juice: pylorus ligation 1 h after administration, gastric juice collected after 4 h; for Amount of gastric juice / Total acid amount of the gastric juice: X ± S; for Total acid amount of the gastric juice: titration with 0.01 mol/L NaOH; for Effect on the total acid amount of the gastric juice as compared with the model control group: I-1a 2 mg/kg and 1 mg/kg, vonoprazan fumarate 2 mg/kg, P<0.05 or P<0.01
Description: An equal amount of deuterated vonoprazan fumarate derivatives I-1a, I-2a, I-3a and I-4a prepared and obtained in the Examples and vonoprazan fumarate (vonoprazan was 1-[5-(2-fluorophenyl)-1-(pyridin-3-yl-sulfonyl)-1H-pyrrol-3-yl]-N-methylmethanamine) were taken respectively and subjected to the inhibitory activity test on gastric acid secretion in rats.
SD rats which were SPF grade and weighed 180 to 200 g were selected and used in this experiment. The rats were grouped randomly with 10 rats in each group (half male and half female). Animals were fasted but free to access water for 16 hours. 1 hour after administration, the animals were anesthetized with isoflurane and fixed in a supine position. The abdomen was shaved and disinfected routinely. A 1.5 cm incision was made along the midline and below the xiphoid, the stomach was taken gently, the gastric pylorus was ligated with surgical suture at the junction of the stomach pylorus and the duodenum, and the incision was sutured. The animals were fasted and water-deprived after the surgery. After 4 hours, the animals were anesthetized by intra-abdominally injecting 1% sodium pentobarbital. The incision was opened, and the gastric cardia was ligated. The stomach was taken out and cut open along the greater curvature of stomach. The gastric juice was collected and centrifuged at 3000 rpm for 10 minutes. The supernatant was aspirated and the volume of the gastric juice was measured. 0.5 mL of the gastric juice was taken and placed in a small conical flask, a drop of phenolphthalein indicator was added, and the mixture was titrated with 0.01 mol/L sodium hydroxide until the red color appeared (the color was no longer deepened) as the endpoint. The total amount of gastric acid was calculated according to the following formula. The average secretion amount of the gastric juice and the total acid amount of the gastric juice of each administered group and the model control group were subjected to statistical tests.
The inhibitory test of basal gastric acid secretion in rats was carried out after intragastric administration of the vonoprazan fumarate derivatives and vonoprazan fumarate, and the results were as shown in Table 1 and FIG. 1. […] The inhibitory effects of the vonoprazan fumarate derivative (Compound I-1a) with a dosage of 2 mg/kg on the secretion amount of gastric juice and the total acid amount of the gastric juice in rats were stronger than that of the same dosage (2 mg/kg) of vonoprazan fumarate, and there was a significant difference between the two (P<0.05). As compared with vonoprazan fumarate, the vonoprazan fumarate derivatives had stronger inhibitory effect on the gastric acid secretion in rats at the same dosage.

[2] = Pharmacokinetic experiment in rats after single intragastric administration (plasma LC-MS/MS); assay type: in vivo; conditions: both sexes, SD, rat, po, 2 mg/kg intragastric; for AUC(0-inf) / Cmax / Tmax / half-life: n = 6; for bioavailability: n = 6, read-out: F (absolute bioavailability); for AUC(0-t): 2 mg/kg
Method: An equal amount of Compound I-1a (1-[5-(2-fluorophenyl)-1-(pyridin-3-yl-sulfonyl)-1H-pyrrol-3-yl]-N-methyldideuteromethanamine fumarate) prepared and obtained in the Example and vonoprazan fumarate were taken respectively and subjected to a pharmacokinetic experiment.
Drug formulating manner: 16 mg of the drug (the vonoprazan fumarate derivatives or vonoprazan fumarate) was weighed and taken, and dissolved in 2 mL of N-methylpyrrolidone. 38 mL of 5% glucose injection was further added thereto to prepare a dosing solution with a concentration of 0.4 mg/mL and the dosing solution was administered by intragastric administration.
Intragastric administration: 6 SD rats (half male and half female) were taken and orally administered as a single dose (2 mg/kg). Blood samples was collected after administration, and the time points of blood collection were 0.083 hours, 0.25 hours, 0.5 hours, 1 hour, 2 hours, 3 hours, 4 hours, 6 hours, 8 hours, 12 hours, 24 hours, 36 hours, and 48 hours after the administration.
Sample collection: 200 μL of whole blood was taken at each time point of blood collection, heparin was added for anticoagulation, and the mixture was centrifuged at 12000 rpm for 5 min at 4° C. 50 μL of the plasma was taken and placed in a polypropylene tube, and the rest was used for backup and stored at −20° C. to be tested.
Plasma treatment method: To 50 μL of rat plasma anticoagulated by heparin, 50 μL of methanol and […], of a solution of the internal standard etofesalamide in methanol (10 ng/mL) were added. The mixture was vortexed for 1 min and centrifuged at 12000 rpm for 10 min at 4° C. 100 μL of the supernatant was taken and placed in a vial insert, and 1 μL of the supernatant was injected for LC-MS/MS analysis.
The pharmacokinetic parameters were calculated by non-compartment model statistical moment method using WinNonlin 6.3 software.

[3] = mean, n = 6, read-out: AUC0-6 h

AUC(0-inf) ([2]; mean) [ng·h/mL] | Cmax ([2]; mean) [ng/mL] | Tmax ([2]; mean) [min] | half-life ([2]; mean) [min] | bioavailability [2] [%] | AUC(0-t) [2, 3] [ng·h/mL] | AUC(0-t) ([2]; read-out: AUC0-t in the plasma) [ng·h/mL] | Compound | Inhibitory rate (basal gastric acid secretion) ([1]; 1 mg/kg intragastric) [%] | Amount of gastric juice ([1]; 1 mg/kg intragastric) [mL] | Total acid amount of the gastric juice ([1]; 1 mg/kg intragastric) [µmol] | Inhibitory rate (basal gastric acid secretion) ([1]; 2 mg/kg intragastric) [%] | Amount of gastric juice ([1]; 2 mg/kg intragastric) | Total acid amount of the gastric juice ([1]; 2 mg/kg intragastric) | Effect on the total acid amount of the gastric juice as compared with the model control group [1] | also measured
 |  |  |  |  |  |  | CNCc1cc(-c2ccccc2F)n(S(=O)(=O)c2cccnc2)c1 [vonoprazan fumarate, reference compound] | 43.1 | 3.1 ± 1.2 | 184.2 ± 83.4 | 73.8 | 3.0 ± 1.3 mL | 84.9 ± 83.2 µmol | significant inhibitory effect | 
45 | 67.3 | 15 | 47.8 | 33.5 | 44.6 | 45 | CNCc1cc(-c2ccccc2F)n(S(=O)(=O)c2cccnc2)c1 [TAK-438, 1-[5-(2-fluorophenyl)-1-(pyridin-3-yl-sulfonyl)-1H-pyrrol-3-yl]-N-methylmethanamine, reference compound] |  |  |  |  |  |  |  | 
56.4 | 74.9 | 15 | 57.7 | 42.9 | 56.2 | 56.4 | [2H]C([2H])(NC)c1cc(-c2ccccc2F)n(S(=O)(=O)c2cccnc2)c1 [TAK-438d2, 1-[5-(2-fluorophenyl)-1-(pyridin-3-yl-sulfonyl)-1H-pyrrol-3-yl]-N-methyldideuteromethanamine] |  |  |  |  |  |  |  | 
 |  |  |  |  |  |  | O=C(O)/C=C/C(=O)O.[2H]C([2H])(NC)c1cc(-c2ccccc2F)n(S(=O)(=O)c2cccnc2)c1 [Compound I-1a, 1-[5-(2-fluorophenyl)-1-(pyridin-3-yl-sulfonyl)-1H-pyrrol-3-yl]-N-methyldideuteromethanamine fumarate] | 52.7 | 2.6 ± 0.8 | 153.3 ± 85.9 | 95.3 | 1.8 ± 0.9**^Δ mL | 15.3 ± 12.9***^Δ μmol | significant inhibitory effect | Effect on the secretion amount of gastric juice as compared with the model control group ([1]; 2 mg/kg, P<0.01): significant inhibitory effect; Inhibitory effects on secretion amount and total acid amount of gastric juice compared with same dosage of vonoprazan fumarate ([1]; 2 mg/kg, P<0.05): stronger
 |  |  |  |  |  |  | O=C(O)/C=C/C(=O)O.[2H]C([2H])([2H])NC([2H])([2H])c1cc(-c2ccccc2F)n(S(=O)(=O)c2cccnc2)c1 [Compound I-2a, 1-[5-(2-fluorophenyl)-1-(pyridin-3-yl-sulfonyl)-1H-pyrrol-3-yl]-N-trideuteromethyldideuteromethanamine fumarate] |  |  |  | 95.5 |  |  |  | 
 |  |  |  |  |  |  | O=C(O)/C=C/C(=O)O.[2H]c1nc([2H])c(S(=O)(=O)n2cc(C([2H])([2H])NC([2H])([2H])[2H])cc2-c2ccccc2F)c([2H])c1[2H] [Compound I-4a, 1-[5-(2-fluorophenyl)-1-(tetradeuteropyridin-3-yl-sulfonyl)-1H-pyrrol-3-yl]-N-trideuteromethyldideuteromethanamine fumarate] |  |  |  | 97.4 |  |  |  | 
